Source: patent publication US6846777B2, “Synergistic biocidal composition” (Thor GmbH, priority 2000, dated 2005)
Where “and” joins values, the source holds several entries; their conditions need not be identical. Identical values can stand only once. Like-named read-outs stand apart in the source and are kept apart here.

Experiments:
Assay in all cases: MIC values / microbial growth in Sabouraud maltose broth and synergistic index (Kull)
Assay type in all cases: cell-based
[1] = system: Penicillium funiculosum DSM 12637; settings: employed alone, incubation 96 hours at 25° C.; for MIC: Talaromyces funiculosus, DSM12637
Method: (§1) In addition to the biocide component and water, the aqueous mixtures also comprised a nutrient medium, viz. a Sabouraud maltose broth (commercial product, Merck No. 10393). The cell density was 10^6 cells/ml. The incubation time was 96 hours at 25° C. Each sample was incubated in a shaker-incubator at 120 rpm.
(§2) The synergistic index calculated by the method of F. C. Kull et al., Applied Microbiology, vol. 9 (1961), p. 538. Here, the synergistic index is calculated using the following formula: Synergistic index SI=Qa/QA+Qb/QB.
(§3) If the synergistic index has a value of above 1, this means that antagonism is present. If the synergistic index assumes a value of 1, this means that an additive effect of the two biocides exists. If the synergistic index assumes a value of less than 1, this means that synergism of the two biocides exists.
Again, the experimental batches contained a Sabouraud maltose broth as the nutrient medium. The cell density was 10^6 cells/ml. The incubation time was 96 hours at 25° C. Each sample was incubated in a shaker-incubator at 120 rpm.

[2] = system: Aspergillus niger DSM 1957; settings: for MIC: Aspergillus niger, DSM1957; for Synergistic index Qa/QA + Qb/QB: single active ingredient alone
Method: as §1, §2, §3
(§4) Again, the experimental batches contained a Sabouraud maltose broth as the nutrient medium. The cell density was 10^6 cells/ml. The incubation time was 72 hours at 25° C. Each sample was incubated in a shaker-incubator at 120 rpm.

[3] = system: Penicillium funiculosum IMI 211742; settings: employed alone, incubation 72 hours at 25° C.; for MIC: Talaromyces funiculosus, IMI211742
Method: as §1, §2, §3, §4

| Compound | MIC [1] | MIC ([2]; DCOIT alone (100.0 % by weight), 72 h/25° C., read-out: MIC at DCOIT concentration Qb) | MIC ([2]; employed alone, incubation 72 hours at 25° C., read-out: MIC value) | Synergistic index Qa/QA + Qb/QB ([2]; 72 h/25° C.) | MIC [3] | MIC value [1] | MIC at ZnPy concentration Qa ([2]; ZnPy alone (100.0 % by weight), 72 h/25° C.) | MIC value ([2]; employed alone, incubation 72 hours at 25° C.) | MIC value [3] |
| --- | --- | --- | --- | --- | --- | --- | --- | --- | --- |
| CCCCCCCCn1sc(Cl)c(Cl)c1=O [DCOIT, 4,5-dichloro-2-n-octyl-4-isothiazolin-3-one] | 2 µg/mL | 0.75 µg/mL | 0.75 µg/mL | 1.00 | 1 µg/mL | – | – | – | – |
| CCCCNC(=O)OCC#CI [IPBC, 3-iodo-2-propynyl N-butylcarbamate] | 2 µg/mL | – | – | – | 0.75 µg/mL | – | – | – | – |
| CCCCCCCCn1sccc1=O [OIT, 2-n-octylisothiazolin-3-one] | – | – | – | – | – | 0.5 ppm | – | – | – |
| zinc pyrithione [ZnPy] | – | – | – | 1.00 | – | 2 ppm | 17.5 ppm | 17.5 ppm | 1 ppm and 0.75 ppm |
